# Source: patent US12576082B2, “METTL16 inhibitors and uses thereof” (City of Hope, priority 2019, dated 2026)
# How the values were obtained:
# [1] = tested on: AML cells; experiment: Cell viability and growth in AML cells (FIGS. 9A-9B); assay type: cell-based
# Experimental: (§1) Cell viability and proliferation assay. Cell viability and proliferation were performed with CellTiter 96 Non-Radioactive Cell Proliferation Assay (MTT, […], Promega). To verify the function of METTL16 inhibitor, cancer cells were seeded into 96-well plate and treated with a series of drug concentration in triplicates. For the cell proliferation with METTL16 knockdown stable cell lines were seeded into 96-well plates, and cultured in the incubator at 37° C. with 5% CO2. 15 μl of the Dye Solution was added into each well. After incubation of 2-4 h, 100 μl of the Solubilization Solution/Stop Mix was added to each well. Finally, the absorbance was determined at 570 nm on the next day.
# [2] = tested on: human NOMO-1 AML cells; experiment: Viability of human NOMO-1 AML cells (MTT, CellTiter 96); assay type: cell-based; details: NOMO-1 cells, 10,000 cells/well, 72 h treatment, read-out: IC50 in inhibiting the viability of human NOMO-1 AML cells
# Experimental: as §1
# The compounds described herein were tested for their ability to inhibit the viability of human NOMO-1 AML cells. […] Cell viability. NOMO-1 cells were seeded into 96-well plate in the concentration of 10,000 cells/well and treated with compounds in triplicates for 72 h. Cell viability was assessed by CellTiter 96 Non-Radioactive Cell Proliferation Assay (MTT, G4100, Promega) following the manufacturer's protocols.
# [3] = tested on: AML and other cancers; experiment: Cell viability of cancer cell lines on CDH24 treatment (MTT); assay type: cell-based, human
# Experimental: as §1
# FIG. 4A provides a Western blots analysis showing the levels of METTL16 expression in various AML cell lines (Kasumi-1, MONOMAC6 (MM6), K562, ML-2, 9.3ITD, U937) and normal bone marrow (BM) mononuclear cells. Actin served as a loading control. […] The values were detected by MTT assays 48 or 72 hours post treatment. In FIGS. 4A-4K: *p<0.05; **p<0.01; ***p<0.001; t test. Error bars, mean±SEM (n≥3)
# [4] = target: T1, METTL16 (Homo sapiens, UniProt Q86W50); experiment: Drug affinity responsive target stability (DARTS) in U937 cell lysates; assay type: binding; details: CDH24 0.1 uM to 500 uM, pronase digestion, immunoblot
# T1 construct: endogenous in cells; host or cells: U937, Kasumi-1, MA9.3RAS (human AML cells)
# T1 sequence (Q86W50 1-562): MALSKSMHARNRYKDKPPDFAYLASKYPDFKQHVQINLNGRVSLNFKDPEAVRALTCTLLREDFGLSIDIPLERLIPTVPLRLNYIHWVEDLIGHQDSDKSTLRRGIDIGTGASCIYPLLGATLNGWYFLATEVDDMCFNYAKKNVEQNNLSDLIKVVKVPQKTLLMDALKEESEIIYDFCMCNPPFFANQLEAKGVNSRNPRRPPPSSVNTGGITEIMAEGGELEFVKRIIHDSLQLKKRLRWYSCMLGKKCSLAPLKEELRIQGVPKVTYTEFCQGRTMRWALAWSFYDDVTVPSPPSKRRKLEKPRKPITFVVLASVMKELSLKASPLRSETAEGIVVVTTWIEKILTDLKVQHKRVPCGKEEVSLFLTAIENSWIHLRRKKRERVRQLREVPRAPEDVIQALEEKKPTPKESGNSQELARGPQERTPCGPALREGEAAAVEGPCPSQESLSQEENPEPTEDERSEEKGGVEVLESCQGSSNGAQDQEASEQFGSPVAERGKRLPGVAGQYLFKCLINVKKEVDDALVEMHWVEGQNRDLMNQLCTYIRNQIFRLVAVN
# Experimental: Drug Affinity Responsive Targets Stability (DARTS). […] In short, 4×10^7 U937 cells were collected, washed with chilled PBS, and lysed in 600 ul M-PER (78501, Thermo Fisher Scientific) supplement with protease inhibitor cocktail and phosphatase inhibitor cocktail. The cells were lysed on ice for 10 min, and centrifuged at 18,000 g for 10 min at 4° C. The supernatant was carefully transferred to a new tube. 10× TNC buffer (500 mM Tris-HCl with pH 8.0, 500 mM NaCl, 100 mM CaCl2) was added into lysate, the protein concentration was then detected by BCA assay. The protein concentration diluted with 1× TNC buffer was adjusted to 5 ug/ul. […] The reaction was quenched by addition of protease inhibitor cocktail and the sample was immediately placed on ice. 4× Laemmli Sample Buffer was added to lysate and denatured at 99° C. for 10 min. Finally, western blotting was used to determine the abundance of METTL16.
# (§2) For DARTS, U937 cell lysates were treated with CDH-24 (from 0.1 uM to 500 uM) or DMSO; samples were subjected to pronase digestion and detected by immunoblotting. Actin was resistant to subtilizing under these conditions and served as a loading control. […] METTL16 knockdown by shRNAs was confirmed by western blots (FIG. 5D). […] In FIGS. 5A-5F: *p<005; **p<0.01: ***p<0001; t test. Error bars, mean±SEM (n≥3).
# [5] = target: T1, METTL16; experiment: Cellular thermal shift assay (CETSA) in U937 cells; assay type: binding; details: 50 μM CDH24 1 h, different temperatures, immunoblot
# Experimental: Cellular Thermal Shift Assay (CETSA). […] Then, the cells were re-suspended in 1.5 ml PBS supplemented with protease inhibitor cocktail. And the cells were distributed into 10 different 200 ul 8-strip PCR tubes with 100 ul for each tube, heat shocked in the Bio-Rad T100 Thermal Cycler at indicated temperature for 3 min to denature proteins, and immediately cooled down at room temperature for 3 min. cells were lysed using dry ice and two repeated cycles of freeze-thaw, then centrifuged at 20,000 g for 20 min at 4° C. Soluble proteins, collected from the supernatant were denatured with 4× Laemmli Sample Buffer at 99° C. for 10 min. Finally, the protein samples were analyzed by western blot.
# as §2
# [6] = target: T1, METTL16; experiment: m6A dot blot, global m6A in AML cells; assay type: cell-based
# Experimental: m^6A dot blot assay. Total RNA was purified with QIAzol regent, and mixed well with 3 volumes of RNA incubation buffer, then denatured at 65° C. for 5 minutes and cooling down on ice immediately. 200 ul of 10×SSC buffer (S6639, Sigma-Aldrich) was loaded onto the Amersham Hybond-N+ membrane for each well to pre-wet the membrane. Then one volume of 20×SSC buffer was added into the RNA samples before dotted onto the membrane. The UV irradiation was used to crosslink RNA to the membrane. After crosslink, the membrane was stained by 0.02% methylene blue and scanned as loading control. Then, the membrane was blocked with 5% nonfat dry milk at room temperature for 1 h and incubated with anti-m6A antibody (1:2000, Synaptic Systems) overnight at 4° C. Next day, the membrane was incubated with the HRP-conjugated goat anti-rabbit IgG (ab6721, abcam) at room temperature for 1 h and developed with pierce ECL Western blotting Substrate (PI32106, Thermo Fisher).
# MB, methyl blue (as loading control). FIGS. 6B-6C show gene-specific m^6A qPCR analysis of m^6A level changes in mRNA transcripts of several known target transcripts of METTL16 in U937 (FIG. 6B) or MA9.3RAS (FIG. 6C) AML cells upon 72 hours treatment of […], relative to cells treated with DMSO.
smiles,measurement,setting,value
Nc1ccc(CO)c(Cn2ccc3c4c(N)nc(N)nc4ccc32)c1 [CDH24-7],cell viability and growth in AML cells,[1],inhibit cell viability and growth
Nc1ccc(Cn2ccc3c4c(N)nc(N)nc4ccc32)c(CO)c1 [CDH24-6],cell viability and growth in AML cells,[1],inhibit cell viability and growth
Nc1nc(N)c2c(ccc3c2ccn3Cc2ccc(Cl)cc2)n1 [Compound (F)],IC50,[2],1.55 nM
N#Cc1ccc(-n2ccc3c4c(N)nc(N)nc4ccc32)cc1 [Compound (E)],IC50,[2],20.6 nM
N#Cc1ccc(C(=O)n2ccc3c4c(N)nc(N)nc4ccc32)cc1 [Compound (G)],IC50,[2],736 nM
CC(=O)Nc1ccc(Cn2ccc3c4c(N)nc(N)nc4ccc32)cc1 [Compound D],IC50,[2],1.4 nM
Nc1nc(N)c2c(ccc3[nH]ccc32)n1 [Compound H],IC50,[2],931 nM
Nc1ccc(Cn2ccc3c4c(N)nc(N)nc4ccc32)cc1 [CDH24],cell viability and growth in AML and other cancers,[3]; FIGS. 4A-4K,inhibitory effect
same,"cell viability in ALL, lymphoma, cervical cancer, pancreatic cancer and glioblastoma cell lines","[3]; MTT assay 72 hours post treatment, series of concentrations",inhibitory effects
same,binding to METTL16 by DARTS,[4],direct binding
same,binding to METTL16 by CETSA,[5],direct binding
same,methyltransferase activity of METTL16 and expression of METTL16 target genes,[6]; FIGS. 6A-6C,inhibitory effect
same,levels of global m^6A,"[6]; U937, Kasumi-1 and MA9.3RAS AML cells, 48 hours treatment",increases
